From patent US11666558B2, “Methods of treating intraocular pressure with activators of Tie-2” (EyePoint Pharmaceuticals, Inc., priority 2015, dated 2023)
Several values for one entry are separate records, joined by “and”; a condition that tells them apart may be missing. Equal entries are not always repeated. Where two headings read alike, the source gives them in different places.

Test: Ocular tissue concentrations (aqueous humor, vitreous humor, iris, retina, choroid, cornea) after topical ocular, subcutaneous and intravitreal administration
Assay type: in vivo, New Zealand White rabbits
Experimental: To measure the concentration of Compound 1 in plasma and ocular tissues following topical ocular, subcutaneous, and intravitreal administration, New Zealand White rabbits were administered Compound 1, and plasma and ocular samples were collected at pre-determined time points. Compound 1 formulations were prepared fresh on each day of dosing.
Ocular tissue samples from both eyes of each animal were collected and weights were recorded. Plasma and ocular tissue sample concentrations of Compound 1 were determined by LC-MS/MS.
New Zealand White rabbits weighing 2.5 to 3.5 kg were used on this study. Rabbits were housed one per cage. Animals were not fasted and only healthy animals with no ocular illness were used. Two rabbits per group were sacrificed at each of four ocular tissue sampling time points for a total of eight rabbits per group.
Animals were anesthetized for ocular (topical) and intravitreal dosing following the 12IA7 IACUC protocol. Each rabbit received a bolus dose of test formulation either via topical ocular administration 3 times daily on Days 1 and 2 (at 0, 6, and 12 hours), and once on Day 3 (at 0 hours) into both eyes; via intravitreal administration into both eyes once on Day 1 (at 0 hours); or via subcutaneous administration 2 times daily on Days 1 and 2 (at 0 and 8 hours) and once daily on Day 3 (at 0 hours). Doses were given within an approximately 1 hour window each day where applicable.
On Day 1, for intravitreal administration, or on Day 3, for topical ocular and subcutaneous administration, at the appropriate ocular tissue collection time points, animals were euthanized and both eyes were enucleated immediately. Following enucleation, each eye was rinsed with phosphate-buffered saline. Ocular tissue samples from both eyes of each animal were collected at predetermined time points and weights were recorded. All the samples were frozen immediately on dry ice, and stored at −60° C. to −80° C. pending bioanalysis.
An LC-MS/MS method was developed for the determination of Compound 1 in rabbit aqueous tissues (plasma, aqueous and vitreous humor) and solid ocular tissue samples. A pre-study standard curve was analyzed to determine the specificity, range, and lower limit of quantitation of the method. Plasma and tissue homogenate study samples were extracted and analyzed. All the samples were treated identically to the standards.
One eight-point standard curve was used in each analytical batch. To be accepted, each batch must have had at least five of eight standards with accuracy within ±20% of nominal, except at the lower limit of quantification (LLOQ), where ±25% was acceptable.
Concentration versus time data is plotted in FIGS. 3-16. All data are expressed as ng/g of the free drug. Samples that were below the limit of quantitation (0.2 ng/mL) were not used in the calculation of averages.

[1] = Group 3 subcutaneous 5 mg/kg, 0.5 hr
[2] = Group 3 subcutaneous 5 mg/kg, 1.0 hr
[3] = Group 3 subcutaneous 5 mg/kg, 2.0 hr
[4] = Group 3 subcutaneous 5 mg/kg, 4.0 hr
[5] = Group 5 intravitreal 2.5 mg per eye, 6.0 hr
[6] = Group 5 intravitreal 2.5 mg per eye, 24 hr
[7] = Group 5 intravitreal 2.5 mg per eye, 48 hr
[8] = Group 5 intravitreal 2.5 mg per eye, 72 hr

Q: With COC(=O)N[C@@H](Cc1ccccc1)C(=O)N[C@@H](Cc1ccc(NS(=O)(=O)O)cc1)c1csc(-c2cccs2)n1 [Compound 1 free acid] as the compound, how does the “Average Peak Concentration, Vitreous Humor” value (Group 3 subcutaneous 5 mg/kg/dose, suspension) read?
A: 0.40 ng/g

Q: What about the “aqueous humor Conc., individual eyes (OD, OS)” value [1] of the same compound?
A: BLOQ (Below the limit of quantitation (0.2 ng/mL)) (2×) and 0.519 ng/mL and 1.90 ng/mL

Q: And the “vitreous humor Conc., individual eyes (OD, OS)” value [1]?
A: BLOQ (Below the limit of quantitation (0.2 ng/mL)) and 0.261 ng/mL

Q: What about the “aqueous humor Conc., individual eyes (OD, OS)” value [2] of the same compound?
A: 0.485 ng/mL and 0.684 ng/mL and 0.229 ng/mL and 0.257 ng/mL

Q: What about the “vitreous humor Conc., individual eyes (OD, OS)” value [2] of the same compound?
A: BLOQ (Below the limit of quantitation (0.2 ng/mL))

Q: What about the “aqueous humor Conc., individual eyes (OD, OS)” value [3] of the same compound?
A: BLOQ (Below the limit of quantitation (0.2 ng/mL)) and 0.594 ng/mL

Q: What about the “vitreous humor Conc., individual eyes (OD, OS)” value [3] of the same compound?
A: BLOQ (Below the limit of quantitation (0.2 ng/mL))

Q: What about the “aqueous humor Conc., individual eyes (OD, OS)” value [4] of the same compound?
A: 0.229 ng/mL and BLOQ (Below the limit of quantitation (0.2 ng/mL))

Q: And the “vitreous humor Conc., individual eyes (OD, OS)” value [4]?
A: BLOQ (Below the limit of quantitation (0.2 ng/mL))

Q: And the “aqueous humor Conc., individual eyes (OD, OS)” value [5]?
A: 34200 ng/mL and 15700 ng/mL and 23400 ng/mL and 32300 ng/mL

Q: And the “vitreous humor Conc., individual eyes (OD, OS)” value [5]?
A: 592000 ng/mL and 625000 ng/mL and 432000 ng/mL and 270000 ng/mL

Q: And the “aqueous humor Conc., individual eyes (OD, OS)” value [6]?
A: 3890 ng/mL and 6480 ng/mL and 5540 ng/mL and 1170 ng/mL

Q: And the “vitreous humor Conc., individual eyes (OD, OS)” value [6]?
A: 528000 ng/mL and 491000 ng/mL and 320000 ng/mL

Q: What about the “aqueous humor Conc., individual eyes (OD, OS)” value [7] of the same compound?
A: 476 ng/mL and 632 ng/mL and 1220 ng/mL and 1330 ng/mL

Q: And the “vitreous humor Conc., individual eyes (OD, OS)” value [7]?
A: 75900 ng/mL and 148000 ng/mL and 68300 ng/mL and 99000 ng/mL

Q: What about the “aqueous humor Conc., individual eyes (OD, OS)” value [8] of the same compound?
A: 145 ng/mL and 172 ng/mL and 94.1 ng/mL and 70.2 ng/mL

Q: And the “vitreous humor Conc., individual eyes (OD, OS)” value [8]?
A: 96500 ng/mL and 101000 ng/mL and 16200 ng/mL

Q: And the concentration at 6 hr (New Zealand White, rabbit, aqueous humor, other: intravitreal, 2.5 mg per eye, Group 5 intravitreal 2.5 mg per eye, 6.0 hr, read-out: aqueous humor Average Conc.)?
A: 26400 ng/g

Q: What about the concentration at 24 hr (New Zealand White, rabbit, aqueous humor, other: intravitreal, 2.5 mg per eye, Group 5 intravitreal 2.5 mg per eye, 24 hr, read-out: aqueous humor Average Conc.) of the same compound?
A: 4270 ng/g

Q: And the concentration at 48 hr (New Zealand White, rabbit, aqueous humor, other: intravitreal, 2.5 mg per eye, Group 5 intravitreal 2.5 mg per eye, 48 hr, read-out: aqueous humor Average Conc.)?
A: 915 ng/g

Q: What about the concentration at 72 hr (New Zealand White, rabbit, aqueous humor, other: intravitreal, 2.5 mg per eye, Group 5 intravitreal 2.5 mg per eye, 72 hr, read-out: aqueous humor Average Conc.) of the same compound?
A: 120 ng/g

Q: What about the concentration at 0.5 h (New Zealand White, rabbit, aqueous humor, subcutaneous, 5 mg/kg, Group 3 subcutaneous 5 mg/kg, 0.5 hr, read-out: aqueous humor Average Conc.) of the same compound?
A: 1.21 ng/g

Q: And the concentration at 1 h (New Zealand White, rabbit, aqueous humor, subcutaneous, 5 mg/kg, Group 3 subcutaneous 5 mg/kg, 1.0 hr, read-out: aqueous humor Average Conc.)?
A: 0.41 ng/g

Q: What about the concentration at 2 hr (New Zealand White, rabbit, aqueous humor, subcutaneous, 5 mg/kg, Group 3 subcutaneous 5 mg/kg, 2.0 hr, read-out: aqueous humor Average Conc.) of the same compound?
A: 0.66 ng/g

Q: What about the concentration at 2 hr (New Zealand White, rabbit, aqueous humor, subcutaneous, 5 mg/kg, Group 3 subcutaneous 5 mg/kg, 2.0 hr, read-out: aqueous humor Conc., individual eyes (OD, OS)) of the same compound?
A: 0.601 ng/mL

Q: And the concentration at 4 hr (New Zealand White, rabbit, aqueous humor, subcutaneous, 5 mg/kg, Group 3 subcutaneous 5 mg/kg, 4.0 hr, read-out: aqueous humor Average Conc.)?
A: 0.51 ng/g

Q: What about the concentration at 4 hr (New Zealand White, rabbit, aqueous humor, subcutaneous, 5 mg/kg, Group 3 subcutaneous 5 mg/kg, 4.0 hr, read-out: aqueous humor Conc., individual eyes (OD, OS)) of the same compound?
A: 0.209 ng/mL

Q: And the concentration at 6 h (New Zealand White, rabbit, vitreous humor, other: intravitreal, 2.5 mg per eye, Group 5 intravitreal 2.5 mg per eye, 6.0 hr, read-out: vitreous humor Average Conc.)?
A: 480000 ng/g

Q: What about the concentration at 24 h (New Zealand White, rabbit, vitreous humor, other: intravitreal, 2.5 mg per eye, Group 5 intravitreal 2.5 mg per eye, 24 hr, read-out: vitreous humor Average Conc.) of the same compound?
A: 409000 ng/g

Q: And the concentration at 24 h (New Zealand White, rabbit, vitreous humor, other: intravitreal, 2.5 mg per eye, Group 5 intravitreal 2.5 mg per eye, 24 hr, read-out: vitreous humor Conc., individual eyes (OD, OS))?
A: 296000 ng/mL

Q: And the concentration at 48 h (New Zealand White, rabbit, vitreous humor, other: intravitreal, 2.5 mg per eye, Group 5 intravitreal 2.5 mg per eye, 48 hr, read-out: vitreous humor Average Conc.)?
A: 97800 ng/g

Q: What about the concentration at 72 h (New Zealand White, rabbit, vitreous humor, other: intravitreal, 2.5 mg per eye, Group 5 intravitreal 2.5 mg per eye, 72 hr, read-out: vitreous humor Average Conc.) of the same compound?
A: 65400 ng/g

Q: What about the concentration at 0.5 hr (New Zealand White, rabbit, vitreous humor, subcutaneous, 5 mg/kg, Group 3 subcutaneous 5 mg/kg, 0.5 hr, read-out: vitreous humor Average Conc.) of the same compound?
A: 0.4 ng/g

Q: What about the concentration at 0.5 hr (New Zealand White, rabbit, vitreous humor, subcutaneous, 5 mg/kg, Group 3 subcutaneous 5 mg/kg, 0.5 hr, read-out: vitreous humor Conc., individual eyes (OD, OS)) of the same compound?
A: 0.227 ng/mL

Q: What about the concentration at 1 hr (New Zealand White, rabbit, vitreous humor, subcutaneous, 5 mg/kg, Group 3 subcutaneous 5 mg/kg, 1.0 hr, read-out: vitreous humor Average Conc.) of the same compound?
A: 0.41 ng/g

Q: What about the concentration at 1 hr (New Zealand White, rabbit, vitreous humor, subcutaneous, 5 mg/kg, Group 3 subcutaneous 5 mg/kg, 1.0 hr, read-out: vitreous humor Conc., individual eyes (OD, OS)) of the same compound?
A: 0.407 ng/mL

Q: What about the concentration at 4 hr (New Zealand White, rabbit, vitreous humor, subcutaneous, 5 mg/kg, Group 3 subcutaneous 5 mg/kg, 4.0 hr, read-out: vitreous humor Average Conc.) of the same compound?
A: 0.41 ng/g

Q: And the concentration at 4 hr (New Zealand White, rabbit, vitreous humor, subcutaneous, 5 mg/kg, Group 3 subcutaneous 5 mg/kg, 4.0 hr, read-out: vitreous humor Conc., individual eyes (OD, OS))?
A: 0.408 ng/mL
